According to US11905273B2, “Inhibitors for the B-catenin/B-cell lymphoma 9 (BCL9) protein-protein interaction” (H. LEE MOFFITT CANCER CENTER AND RESEARCH INSTITUTE, INC., priority 2017, dated 2024):
Structures can show the parent of a compound that is named as a salt. Where two headings read alike, the source gives them in different places.

Legend:
[1] = system: TOPFlash luciferase reporter (three wild-type Tcf binding sites) in β-catenin-activated HEK239; assay: Wnt-responsive TOPFlash luciferase reporter assay, β-catenin-activated HEK293; assay type: cell-based; conditions: 24 h treatment, mean ± SD (n = 3)
Experimental: (§1) Cell transfection and luciferase assay. FuGENE6(E269A, Promega) 96 well plate format was used for the transfection of HEK293 and SW480 cells according to the manufacturer's instruction. HEK293 cells were co-transfected with 45 ng of TOPFlash reporter gene, 135 ng pc DNA3.1-β-catenin, and 20 ng of pCMV-RL normalization reporter gene. SW480 cells were co-transfected with 60 ng of the TOPFlash or FOPFlash reporter gene and 40 ng of pCMV-RL, normalization reporter. Cells were cultured in DMEM and 10% FBS at 37° C. for 24 h, and different concentrations of inhibitors or DMSO was added After 24 h, the luciferase reporter activity was measured using the Dual-Glo system (E2940, Promega). Normalized luciferase activity in response to the treatment with 1 and 2 was compared with that obtained from the cells treated with DMSO. Experiments were performed in triplicate.

[2] = system: MDA-MB-231; assay: MTs cancer cell growth inhibition assay, MDA-MB-231; assay type: cell-based; conditions: Wnt/β-catenin-hyperactive, 72 h, mean ± SD (n = 3)
Experimental: (§2) MTs Cell Viability Assay. Colorectal cancer cell lines, SW480 and HCT116, and triple-negative breast cancer cell line MDA-MB-231 were seeded in 96-well plates at 4=10^3 cells/well, maintained overnight at 37°C., and incubated in the presence of 1 and 2 at various concentrations. Cell viability was monitored after 72 h using a freshly prepared mixture of 1 part phenazine methosulfate (PMS, Sigma) solution (0.92 mg/mL) and 19 parts 3-(4,5-dimethylthiazol-2-yl)-5-(3-carboxymethoxyphenyl)-2-(4-sulfophenyl)-2H-tetrazolium (MTs, Promega) solution (2 mg/mL). Cells were incubated in 10 μL of this solution at 37° C. for 3 h, and A490 was measured. […] Experiments were performed in triplicate.

[3] = molecular target: β-catenin/BCL9 (Homo sapiens (Human), UniProt P35222); assay: AlphaScreen competitive inhibition assay of the β-catenin/BCL9 interaction; assay type: binding; conditions: read-out: Ki ± SD β-catenin/BCL9
Experimental: AlphaScreen Assays. All experiments were performed in shite opaque 384-well plates from PerkinElmer (Waltham, MA) with an assay buffer of 25 mM HEPES (pH=7.4), 100 Mm nAcL, 0.1% BSA, and 0.01% Triton X-100. All sample signals were read on a excitation wavelength was set at 680 nm and emission at 570 nm. All of the final reaction volumes were set to 25 μL. In the cross-titration experiments of the wild-type β-catenin//wild-ty-e BCL9 interaction, N-terminally biotinlyated BCL9 (from 0 to 60 nM) and C-terminally His6-tagged μcatenin (2.5, 5, 10, 20, 40, and 80 nM) were titrated in 20 μg/mL) were added. The mixture was then covered black and incubated at 4° C. for 1 h before detection. All addition and incubation was made under subdued lighting conditions due to the photosensitivity of the beads. The data were analyzed by nonlinear least-square analyses using GraphPad Prism 5.0. Each experiment was repeated three times, and the results were expressed as mean ±standard deviation. The competitive binding experiments were performed to determine the apparent Kd values. The rule of the competitive binding experiments for associating the IC50 value with the Kd value are: (1) the expected Kd value should be 10 times higher than the concentration of either tested protein: (2) the concentrations of both tested proteins should be lower than the binding capacities of their respective beads; and (3) the concentration of the target protein (His6-tagged β-catenin) should be 10 times lower than that of the ligand protein (biotinylated BCL9). […] The donor and acceptor beads were added to a final concentration of 10 μg/mL in 25 μL assay buffer. The mixture was covered black and incubated for 1 h at 4° C. before detection. The IC50 values, which sere also the apparent Kd values from the AlphaScreen assay, were determined by nonlinear least-square analyses using GraphPad Prism 5.0. Each experiment was repeated three times, and the results were expressed as mean ±standard deviation.
For the β-catenin/BCL9 competitive inhibition assay, 5 nM of biotinylated BCL9 and 40 nM of His6-tagged β-catenin were incubated in assay buffer at 4° C. for 30 min. Different concentrations of the tested inhibitor were added and incubated in 20 μL assay buffer at 4°C. for another 1 h. All of the above assay plates were covered and gently mixed on an orbital shaker. The donor and acceptor beads were then added to the plates to a final concentration of 10 μg/mL in 25 μL assay buffer. The mixture was incubated for 1 h at 4° C. before detection. The IC50 value was determined by nonlinear least-square analysis of GraphPad Prism 5.0. The inhibition constant (Ki) values were derived from the […] values using a method reported by Nikolovska-Coleska et al.^26. […] The results were expressed as mean ±standard deviation.

[4] = system: TOPFlash luciferase reporter (three wild-type Tcf binding sites) in SW480; assay: Wnt-responsive TOPFlash luciferase reporter assay, SW480; assay type: cell-based; conditions: 24 h treatment, mean ± SD (n = 3)
Experimental: as §1

[5] = system: SW480; assay: MTs cancer cell growth inhibition assay, SW480; assay type: cell-based; conditions: Wnt/β-catenin-hyperactive, 72 h, mean ± SD (n = 3)
Experimental: as §2

[6] = system: HCT116; assay: MTs cancer cell growth inhibition assay, HCT116; assay type: cell-based; conditions: Wnt/β-catenin-hyperactive, 72 h, mean ± SD (n = 3)
Experimental: as §2

[7] = system: A549; assay: MTs growth inhibition assay, A549; assay type: cell-based; conditions: Wnt-latent, mean ± SD (n = 3)
[8] = AlphaScreen, mean ± standard deviation (n = 3), Ki derived from IC50

β-catenin/BCL9, sequence (P35222 whole entry): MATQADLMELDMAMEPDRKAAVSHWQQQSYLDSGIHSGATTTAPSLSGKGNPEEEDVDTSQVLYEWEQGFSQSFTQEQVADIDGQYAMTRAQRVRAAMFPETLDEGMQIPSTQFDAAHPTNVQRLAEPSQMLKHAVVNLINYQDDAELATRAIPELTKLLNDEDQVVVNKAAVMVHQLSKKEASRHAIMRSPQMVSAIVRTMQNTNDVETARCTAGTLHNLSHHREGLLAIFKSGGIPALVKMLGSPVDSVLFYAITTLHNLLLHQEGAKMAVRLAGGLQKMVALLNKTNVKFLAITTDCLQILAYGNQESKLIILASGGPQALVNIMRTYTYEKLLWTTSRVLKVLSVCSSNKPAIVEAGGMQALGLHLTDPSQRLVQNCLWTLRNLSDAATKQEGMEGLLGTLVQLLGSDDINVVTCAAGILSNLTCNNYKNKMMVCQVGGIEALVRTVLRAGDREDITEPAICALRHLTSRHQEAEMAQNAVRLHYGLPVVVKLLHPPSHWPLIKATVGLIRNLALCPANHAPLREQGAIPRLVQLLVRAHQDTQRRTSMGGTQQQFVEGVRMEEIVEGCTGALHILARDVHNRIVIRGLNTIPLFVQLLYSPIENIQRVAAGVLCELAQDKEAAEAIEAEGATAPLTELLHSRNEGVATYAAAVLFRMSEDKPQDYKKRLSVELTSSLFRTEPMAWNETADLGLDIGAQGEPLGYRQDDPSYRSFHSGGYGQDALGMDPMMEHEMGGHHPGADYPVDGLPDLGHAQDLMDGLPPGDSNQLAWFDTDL

Structure (SMILES)	IC50 ([1]; HEK239) [µM]	IC50 ([2]; Homo sapiens, MDA-MB-231) [µM]	Ki [3] [µM]	IC50 ([4]; Homo sapiens, SW480) [µM]	IC50 ([5]; Homo sapiens, SW480) [µM]	IC50 ([6]; Homo sapiens, HCT-116) [µM]	IC50 ([7]; Homo sapiens, A549) [µM]	Ki [3, 8] [µM]	IC50 [5] [µM]	IC50 [6] [µM]	IC50 [7] [µM]	IC50 [2] [µM]	IC50 [4] [µM]	IC50 [1] [µM]
Fc1ccc(-c2cc(-c3ccc4cc(O[C@H]5CCNC5)c(-c5ccc(F)c(F)c5)cc4n3)ccc2O[C@H]2CCNC2)cc1 [Compound 1, 7-(3,4-difluorophenyl)-2-(4′-fluoro-6-((S)-pyrrolidin-3-yloxy)-[1,1′-biphenyl]-3-yl)-6-((S)-pyrrolidin-3-yloxy)quinoline dihydrochloride]	26 ± 3.1	15 ± 6.1	8 ± 1.8	12 ± 1.5	3.6 ± 1.9	9.6 ± 2.5	23 ± 4.4	–	–	–	–	–	–	–
Fc1ccc(-c2cc(-c3cnc4cc(O[C@H]5CCNC5)c(-c5ccc(F)c(F)c5)cc4c3)ccc2O[C@H]2CCNC2)cc1 [Compound 2, 6-(3.4-difluorophenyl)-3-(4′-fluoro-6-((S)-pyrrolidin-3-yloxy)-[1,1′-biphenyl]-3-yl)-7-((S)-pyrrolidin-3-yloxy)quinoline dihydrochloride]	14 ± 1.5	3.1 ± 1.2	–	7.9 ± 1.4	1.7 ± 0.9	2.2 ± 1	7.5 ± 2.9	–	–	–	–	–	–	–
O=C(Nc1ccc(O[C@H]2CCNC2)c(-c2ccc(F)cc2)c1)c1ccc(O[C@H]2CCNC2)c(C2CCCCC2)c1 [Compound 3, 3-cyclohexyl-N-(4′-fluoro-6-(((S)-pyrrolidin-3-yl)oxy)-[1,1′-biphenyl]-3-4-(((S)-pyrrolidin-3-yl)oxy)benzamidedihydrochloride]	–	–	–	–	–	–	–	14 ± 1.6	6.6 ± 2.7	3.8 ± 1.5	3.8 ± 1.5	–	–	–
O=C(Nc1ccc(O[C@H]2CCNC2)c(-c2ccc(F)cc2)c1)c1ccc(O[C@H]2CCNC2)c(C2=CCCCC2)c1 [Compound 4, N-(4^+-fluoro-6-(((S)-pyrrolidin-3-yl)oxy)-[1,1′-biphenyl]-6-(((S)-pyrrolidin-3-yl)oxy)-2′,3′,4′,5′-tetrahydro-[1.1′-biphenyl]-3-carboxamidedihydrochloride]	–	–	–	–	–	–	–	7.1 ± 2.5	3.7 ± 2	6.9 ± 3.2	8.9 ± 2.7	3.4 ± 1.6	8.7 ± 2.3	–
O=C(Nc1ccc(O[C@H]2CCNC2)c(-c2ccc(F)cc2)c1)c1ccc(O[C@H]2CCNC2)c(C2CCC(C(F)(F)F)CC2)c1 (stereo partly drawn) [Compound 5, N-(-4′-fluoro-6-(((S)-pyrrolidin-3-yl)oxy)-[1,1′-biphenyl]-3-yl)-4-(((S)-pyrrolidin-3-yl)oxy)-3-(4-(trifluoromethyl)cyclohexyl) benzamide dilydrocholoride]	–	–	–	–	–	–	–	4.2 ± 2.3	3.6 ± 2.7	5.6 ± 2.7	4.8 ± 2.4	2.3 ± 1	10 ± 3.3	10 ± 3.2
